According to US11111238B2, “Coumarin derivatives, processes for their preparation and uses thereof for the treatment of cancer” (Lead Discovery Center GmbH, priority 2017, dated 2021):

Experiments:
[1] = system: human DLD-1 colon carcinoma xenograft; experiment: Therapeutic effect on human DLD-1 colon carcinoma xenograft in nude mice; settings: 30 mg/kg p.o. QD × 28 days, positive control
Procedure: DLD-1 colon carcinoma cells (5×10^6 cells in 100 μL of PBS/Matrigel), isolated during exponential growth phase from in vitro cell culture, were transplanted s.c. into each female BALB/c nude mouse at day 0. Mice were kept under strictly controlled and standardized barrier conditions in IVC.
Sorafenib) (Nexavar®, which is an approved multi-kinase inhibitor/cytostatic from Bayer A G, was used as a positive control. Body weight and tumor volume (TV) were monitored two to three times per week.
Mice of groups 3, 4 and 5 were treated again at the end of the study period and blood samples were taken to generate plasma 1 h prior and 1 h post treatment. In addition, tumor and tissue samples were isolated, divided into two parts and snap frozen in liquid nitrogen. Mice of groups 1-5 were sacrificed at day 39. Gross autopsy was performed from all mice.

HRT-18 (colon) = experiment: CellTiter GLO viability assay, HRT-18; format: cell-based; settings: Homo sapiens, 144 h, read-out: IC50 (μM) incubation time 144 h
Procedure: (§1) The CellTiter-Glo Luminescent Cell Viability Assay (Promega) is a homogeneous method of determining the number of viable cells in culture. It is based on quantification of ATP, indicating the presence of metabolically active cells.
(§2) Cells were seeded on day 1 at cell numbers that assure assay linearity and optimal signal intensity. After incubation for 3 h in humidified chambers at 37° C./5% CO2 compounds/DMSO were added at different concentrations. […] Cells treated with the compound vehicle DMSO were used as positive controls and cells treated with 10 μM Staurosporine served as negative controls. […] Thereon, mixture and assay plates were equilibrated at room temperature for 20 min. Equal volumes of the reagent-medium-mixture was added to the volume of culture medium present in each well.
(§3) The plates were mixed at ˜200 rpm for 2 minutes on an orbital shaker. The microplates were then incubated at room temperature for 10 minutes for stabilization of the luminescent signal. Following incubation the luminescence is recorded on a Victor microplate reader (Perkin Elmer) using 200 ms integration time. The data were then analyzed with Excel using the XLFIT Plugin (dose response Fit 205) for IC50-determination. As quality control the Z′-factor was calculated from 16 positive and negative control values. Only assay results showing a Z′-factor≥0.5 were used for further analysis.

[2] = biological target: mitochondrial RNA-polymerase (POLRMT) (Mus musculus, UniProt Q8BKF1); experiment: Homogeneous TR-FRET assay for mitochondrial transcription activity; format: biochemical; settings: homogeneous TR-FRET assay according to Example 4; activity class
mitochondrial RNA-polymerase (POLRMT), sequence (Q8BKF1 42-1207): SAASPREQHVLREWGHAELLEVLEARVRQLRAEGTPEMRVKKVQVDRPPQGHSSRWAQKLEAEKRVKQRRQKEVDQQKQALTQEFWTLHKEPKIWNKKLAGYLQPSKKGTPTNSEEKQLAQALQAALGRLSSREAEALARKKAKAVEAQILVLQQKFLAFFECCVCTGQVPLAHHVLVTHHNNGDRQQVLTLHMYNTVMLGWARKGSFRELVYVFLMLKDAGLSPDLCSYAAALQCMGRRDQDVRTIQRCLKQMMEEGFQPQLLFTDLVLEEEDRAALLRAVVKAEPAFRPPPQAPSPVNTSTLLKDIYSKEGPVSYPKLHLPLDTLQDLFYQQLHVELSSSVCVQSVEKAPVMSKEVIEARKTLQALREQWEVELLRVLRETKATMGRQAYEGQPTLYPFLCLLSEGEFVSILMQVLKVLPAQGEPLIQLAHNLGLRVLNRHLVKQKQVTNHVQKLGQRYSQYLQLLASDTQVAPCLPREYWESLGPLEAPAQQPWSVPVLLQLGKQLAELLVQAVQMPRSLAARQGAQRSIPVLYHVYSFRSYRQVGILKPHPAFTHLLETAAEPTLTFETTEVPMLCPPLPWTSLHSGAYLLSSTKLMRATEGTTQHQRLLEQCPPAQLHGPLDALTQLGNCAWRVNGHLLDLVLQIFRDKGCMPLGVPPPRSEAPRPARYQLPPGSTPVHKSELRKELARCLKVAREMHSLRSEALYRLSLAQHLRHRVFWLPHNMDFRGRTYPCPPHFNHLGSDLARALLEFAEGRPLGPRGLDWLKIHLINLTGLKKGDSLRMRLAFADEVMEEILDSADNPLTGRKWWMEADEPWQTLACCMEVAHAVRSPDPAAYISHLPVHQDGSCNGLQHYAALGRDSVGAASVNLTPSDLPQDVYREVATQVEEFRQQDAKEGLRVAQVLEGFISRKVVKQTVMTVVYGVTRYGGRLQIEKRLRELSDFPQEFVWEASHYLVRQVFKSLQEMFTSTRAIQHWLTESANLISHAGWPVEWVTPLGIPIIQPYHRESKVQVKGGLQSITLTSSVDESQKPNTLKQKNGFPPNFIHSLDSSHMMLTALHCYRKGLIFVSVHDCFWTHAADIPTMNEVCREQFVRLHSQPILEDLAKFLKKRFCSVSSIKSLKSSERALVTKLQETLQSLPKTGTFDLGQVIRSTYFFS
Procedure, shortened: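 TR-FRET read-out (340 nm excitation, 665 nm emission) of a 407 bp transcript captured by Eu-streptavidin/biotin donor and ATTO647N acceptor DNA probes after EDTA stop. Transcription ran 2 h at RT with 500 μM […], mouse POLRMT/TFAM/TFB2M and LSP-plasmid template, after 10 min compound preincubation (10 μM or dilution series).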

NCI-H596 (lung) = experiment: CellTiter GLO viability assay, NCI-H596; format: cell-based; settings: Homo sapiens, 144 h, read-out: IC50 (μM) incubation time 144 h
Procedure: as §1, §2, §3

HEC-59 (endometrial) = experiment: CellTiter GLO viability assay, HEC-59; format: cell-based; settings: 144 h, read-out: IC50 (μM) incubation time 144 h
Procedure: as §1, §2, §3

SW48 (colon) = experiment: CellTiter GLO viability assay, SW48; format: cell-based; settings: Homo sapiens, 144 h, read-out: IC50 (μM) incubation time 144 h
Procedure: as §1, §2, §3

CA-46 (lymphoma) = experiment: CellTiter GLO viability assay, CA-46; format: cell-based; settings: Homo sapiens, CA46, 144 h, read-out: IC50 (μM) incubation time 144 h
Procedure: as §1
as §2, with “Cells were seeded on day 1 at cell numbers that assure assay linearity and optimal signal intensity.” left out
as §3

SW948 (colon) = experiment: CellTiter GLO viability assay, SW948; format: cell-based; settings: Homo sapiens, 144 h, read-out: IC50 (μM) incubation time 144 h
Procedure: as §1, §2, §3

SW403 (colon) = experiment: CellTiter GLO viability assay, SW403; format: cell-based; settings: Homo sapiens, SW-403, 144 h, read-out: IC50 (μM) incubation time 144 h
Procedure: as §1
as §2, with “Cells were seeded on day 1 at cell numbers that assure assay linearity and optimal signal intensity.” left out
as §3

NCI-H1299 (lung) = experiment: CellTiter GLO viability assay, NCI-H1299; format: cell-based; settings: Homo sapiens, 144 h, read-out: IC50 (μM) incubation time 144 h
Procedure: as §1, §2, §3

NCI-H23 (lung) = experiment: CellTiter GLO viability assay, NCI-H23; format: cell-based; settings: for IC50: Homo sapiens, NCI-H23 (lung), 144 h, read-out: IC50 (μM) incubation time 144 h; for sensitivity of the cell line (in words): NCl-H23
Procedure: as §1, §2, §3

[3] = system: mitochondrial transcription (7S RNA) in HeLa cells; experiment: Quantitative real time-PCR assay of inhibition of mitochondrial transcription (cellular qPCR assay IMT); format: cell-based; settings: Homo sapiens, 4 h compound incubation, qRT-PCR according to Example 5, activity class
Procedure, shortened: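 HeLa cells were exposed 4 h to compound dilution series or DMSO. Mitochondrial 7S RNA, with POLRMT for nuclear transcription, was measured by TaqMan qRT-PCR, normalised to TBP. Biological triplicates were analysed by ΔΔCt and expressed as Rq % (2^-ΔΔCt).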

Row | SMILES | IC50 [2] | IC50 [3] | further results
1 | CNC(=O)c1cc(Oc2ccc(NC(=O)Nc3ccc(Cl)c(C(F)(F)F)c3)cc2)ccn1 [Sorafenib, reference compound] |  |  | body weight loss [1]: severe body weight loss
2 | Cc1ccccc1-c1cc(=O)oc2cc(OC(C)C(=O)N(C)C)ccc12 (centres unmarked) [Compound 38, N,N-dimethyl-2-[4-(o-tolyl)-2-oxo-chromen-7-yl]oxy-propanamide] | < 20 nM | < 10 nM | IC50 (HRT-18 (colon)): ≤ 0.1 µM; IC50 (NCI-H596 (lung)): 1 to 10 µM; IC50 (HEC-59 (endometrial)): > 10 µM; IC50 (SW48 (colon)): 1 to 10 µM; IC50 (CA-46 (lymphoma)): 0.1 to 1 µM; IC50 (SW948 (colon)): 0.1 to 1 µM; IC50 (SW403 (colon)): 0.1 to 1 µM; IC50 (NCI-H1299 (lung)): 0.1 to 1 µM; IC50 (NCI-H23 (lung)): 1 to 10 µM; sensitivity of the cell line (in words) (NCI-H23 (lung)): moderate sensitivity
3 | CC(Oc1ccc2c(-c3ccc(F)cc3Cl)cc(=O)oc2c1)C(=O)N1CCC[C@H](C(=O)O)C1 (stereo partly drawn) [Compound 47, (3S)-1-(2-((4-(2-chloro-4-fluorophenyl)-2-oxo-2H-chromen-7-yl)oxy)propanoyl)piperidine-3-carboxylic acid] | < 20 nM | < 10 nM | IC50 (HRT-18 (colon)): ≤ 0.1 µM; IC50 (NCI-H596 (lung)): 1 to 10 µM; IC50 (HEC-59 (endometrial)): > 10 µM; IC50 (SW48 (colon)): 0.1 to 1 µM; IC50 (CA-46 (lymphoma)): 0.1 to 1 µM; IC50 (SW948 (colon)): 0.1 to 1 µM; IC50 (SW403 (colon)): 0.1 to 1 µM; IC50 (NCI-H1299 (lung)): 0.1 to 1 µM; IC50 (NCI-H23 (lung)): > 10 µM; sensitivity of the cell line (in words) (NCI-H23 (lung)): resistant
4 | Cc1ccccc1-c1cc(=O)oc2cc(OC(C)C(=O)NC(C)C)ccc12 (centres unmarked) [Compound 62, N-isopropyl-2-[4-(o-tolyl)-2-oxo-chromen-7-yl]oxy-propanamide] | 20 to 100 nM | < 10 nM | 
5 | CC(Oc1ccc2c(-c3ccccc3Cl)cc(=O)oc2c1)C(=O)N1CCCCC1 (centres unmarked) [Compound 2, 4-(2-chlorophenyl)-7-[1-methyl-2-oxo-2-(1-piperidyl)ethoxy]chromen-2-one] | < 20 nM | < 10 nM | 
6 | CNC(=O)C1CCCN(C(=O)C(C)Oc2ccc3c(-c4ccccc4C)cc(=O)oc3c2)C1 (centres unmarked) [Compound 21, N-methyl-1-[2-[4-(o-tolyl)-2-oxo-chromen-7-yl]oxypropanoyl]piperidine-3-carboxamide] | < 20 nM | < 10 nM | 
7 | Cc1ccccc1-c1cc(=O)oc2cc(OC(C)C(=O)N3CCC[C@H](C(=O)N(C)C)C3)ccc12 (stereo partly drawn) [Compound 84, (3S)-N,N-dimethyl-1-[2-[4-(o-tolyl)-2-oxo-chromen-7-yl]oxypropanoyl]piperidine-3-carboxamide] | 20 to 100 nM | 10 to 50 nM | 

Continued, in another order:

Row | IC50 [2] | IC50 [3] | SMILES | further results
8 | 20 to 100 nM | 50 to 500 nM | C[C@@H](Oc1ccc2c(-c3ccccc3Cl)cc(=O)oc2n1)C(=O)N1CCC[C@H](C(=O)O)C1 [Compound 172, (3S)-1-[(2R)-2-[4-(2-chlorophenyl)-2-oxo-pyrano[2,3-b]pyridin-7-yl]oxypropanoyl]piperidine-3-carboxylic acid] | 
9 | < 20 nM | < 10 nM | C[C@@H](Oc1ccc2c(-c3ccc(F)cc3Cl)cc(=O)oc2c1)C(=O)Nc1ccc(C(=O)O)cn1 [Compound 155, 6-[[(2R)-2-[4-(2-chloro-4-fluoro-phenyl)-2-oxo-chromen-7-yl]oxypropanoyl]amino]pyridine-3-carboxylic acid] | 
10 | 20 to 100 nM | < 10 nM | CC(C)OC(=O)C(C)Oc1ccc2c(-c3ccccc3Br)cc(=O)oc2c1 (centres unmarked) [Compound 92, isopropyl 2-[4-(2-bromophenyl)-2-oxo-chromen-7-yl]oxypropanoate] | 
11 | 100 to 1000 nM | 500 to 5000 nM | C[C@@H](Oc1ccc2c(-c3ccc(F)cc3Cl)cc(=O)oc2c1)C(=O)N1CCN(C)C(C(=O)O)C1 (mixture of isomers) [Compound 161, 1-methyl-4-[rac-(2R)-2-[4-(2-chloro-4-fluoro-phenyl)-2-oxo-chromen-7-yl]oxypropanoyl]piperazine-2-carboxylic acid] | 
12 | < 20 nM | < 10 nM | Cc1cscc1-c1cc(=O)oc2cc(O[C@H](C)C(=O)N3CCCCC3)ccc12 [Compound 183, 7-[(1R)-1-methyl-2-oxo-2-(1-piperidyl)ethoxy]-4-(4-methyl-3-thienyl)chromen-2-one] | 
13 | 20 to 100 nM | 10 to 50 nM | Cc1ccsc1-c1cc(=O)oc2cc(O[C@H](C)C(=O)N3CCC[C@H](CC(=O)O)C3)ccc12 [Compound 181, 2-[(3R)-1-[(2R)-2-[4-(3-methyl-2-thienyl)-2-oxo-chromen-7-yl]oxypropanoyl]-3-piperidyl]acetic acid] | 
14 | 20 to 100 nM | < 10 nM | CC(C)OC(=O)C[C@H]1CCCN(C(=O)[C@@H](C)Oc2ccc3c(-c4ccc(F)cc4Cl)cc(=O)oc3c2)C1 [Compound 123, isopropyl 2-[(3R)-1-[(2R)-2-[4-(2-chloro-4-fluoro-phenyl)-2-oxo-chromen-7-yl]oxypropanoyl]-3-piperidyl]acetate] | 
